Patent US20230172925A1, “SKIN-CARE COMPOSITIONS AND USES THEREOF” (AHAVA - DEAD SEA LABORATORIES LTD., priority 2019, published 2023)
Entries after “also recorded” stand apart in the source; their conditions may differ.

What was measured:
[1] = system: human skin explants (epidermis); assay: Human skin organ culture with UVB stressor, viability by MTT assay; assay type: cell-based; conditions: UVB 200 mJ/cm2, topical 3 μl before and after irradiation, 48 hours in total; compared to irradiated control
Protocol: (§1) Topical exposure till 48 hours in total (24 hr recovery following topical application+24 hr after exposure to UVB irradiation) with UVB radiation as stressor on human skin model
(§2) The following general procedure was used in the study:
(§3) Day 1: Topical application of 3 μl of each sample solution on the epidermis of each skin explant. Incubate for 24 hours. SDS 10% was applied only once, and was not farther irradiated with UVB.
(§4) Day 2: Skin explants were washed once with PBS and irradiated with UVB lamp at 200 mJ/cm2. After radiation it was incubated for 30 min and then topically apply each treatment (sample solution) again. Control was not irradiated under UVB light. UVB radiated control was without any treatment except radiation.
(§5) Day 3: Viability and Caspase3 activity were measured for the epidermis layer. The medium was collected for cytokines test.
FIG. 2 illustrates a flow diagram of topical exposure/treatment till 48 hours, 24 hr recovery following topical application +24 hr after exposure to UVB irradiation) with UVB radiation as stressor on human skin model experiment. In the Experiment the SDS irritation control sample was a skin explant that was topical applied with 3 μl SDS 10% solution at day 1 only.
The viability of the various skin explants was measured by the 5-dimethylthiazol-2-yl]-2,5-diphenyl tetrazolium bromide (MTT) assay.

TNFα [2] = assay: Human skin organ culture with UVB stressor, TNFα secretion in the medium; assay type: cell-based; conditions: UVB
Protocol: as §1, §2, §3, §4, §5
FIG. 4 illustrates the TNFα secretion results in the medium as observed with 2 to 4 repetition of the tests. In FIG. 4 the TNFα secretion of the irradiated sample “UVB” was selected as 100% and it equals 53±30 pg/ml.

IL-1α [3] = assay: Human skin organ culture with UVB stressor, IL-1α secretion in the medium; assay type: cell-based; conditions: UVB
Protocol: as §1, §2, §3, §4, §5
FIG. 5 illustrates the IL-1α secretion results in the medium as observed with 3 to 4 repetition of the tests. In FIG. 5 the IL-1α secretion of the irradiated sample “UVB” was selected as 100% and it equals 8.1±1.0 pg/ml.

[4] = system: human skin explants (epidermis); assay: Human skin organ culture without UVB stressor, topical exposure till 96 hours, viability by MTT assay; assay type: cell-based; conditions: no UVB; 96 hours of topical application; vs control
Protocol: (§6) Topical Exposure Till 96 Hours without External UVB Radiation as Stressor on Human Skin Model
(§7) Day 1: Topical application of 3 μl of each solution on the epidermis of each skin explant. Incubate for 24 hours. (SDS Irritation control: topical application of 3 ul SDS 10% was applied on the skin model at day 1 only. The rest of the days samples were untouched).
(§8) Day 2: Topical application of 3 μl of each solution on the epidermis of each skin explant. Incubate for 24 hours in fresh medium (medium was not collected). (UVB control: after 24 hours incubation with 3 μl H2O skin was irradiated with 200 mJ/cm2 UVB. The rest of the experiment days sample were topically applied with H2O, as control).
(§9) Day 3: Topical application of 3 μl of each solution on the epidermis of each skin explant. Incubate for 24 hours in fresh medium (medium was collected)—48 hours of total topical incubation.
(§10) Day 4: Topical application of 3 μl of each solution on the epidermis of each skin explant. Incubate for 24 hours in fresh medium (medium was collected)—72 hours of total topical incubation.
Day 5: Topical application of 3 μl of each solution on the epidermis of each skin explant. Incubate for 24 hours in fresh medium (medium was collected)—96 hours of total topical incubation. MTT assay was performed. […]
The viability of the various skin explants was measured by the MTT assay.

TNFα [5] = assay: Human skin organ culture without UVB stressor, TNFα secretion; assay type: cell-based; conditions: no UVB
Protocol: as §6, §7, §8, §9, §10
(§11) Day 5: Topical application of 3 μl of each solution on the epidermis of each skin explant. Incubate for 24 hours in fresh medium (medium was collected)—96 hours of total topical incubation. MTT assay was performed.
FIG. 8 illustrates the TNFα secretion tested results. In FIG. 8 the TNFα secretion of the H2O sample was used as a control (0.35±0.05 pg/ml) for each time point.

IL-1α [6] = assay: Human skin organ culture without UVB stressor, IL-1α secretion; assay type: cell-based; conditions: no UVB; Retinol 1.0%; 48, 72 and 96 hours
Protocol: as §6, §7, §8, §9, §10, §11
FIG. 9A illustrates the IL-1α secretion results in the medium. In FIG. 9A the IL-1α secretion of the H2O sample was used as a control (9.0±0.7 pg/ml […]) for each time point. FIG. 9B is a magnification of FIG. 9A.

skin equivalents = assay: DNA microarray gene expression in skin equivalents, comparative with 3D complex and Retinol (Example 6); assay type: cell-based, human; conditions: Retinol 5 μM
Protocol: In the present study the biological activity on gene expression of the pRETINOL complex was compared to the activity of a composition which was previously described in [13] and [14] and referred to herein as 3D complex. The activity was further compared to that observed with Retinol (5 μM of Retinol in double distilled water).
On each array, treated vs. untreated samples were compared. Each array was processed and the data from all arrays was normalized to get the average expression and log fold change (log FC) for each gene on each array.
An analysis of full human genome was performed.
Further to the above analysis, similar to the study presented in Example 5, major skin related pathways were selected from KEGG and wiki pathways list and the p-value and z-score were calculated for these pathways.

[7] = system: human primary fibroblasts; assay: Hyaluronic acid production assay (ELISA); assay type: cell-based; conditions: Retinol 1.0 μM in the culture media; 48 hours
Protocol: The human primary fibroblast cell culture was grown at an 80% confluence in Dulbecco's Modified Eagle's High glucose (Hg) medium (DMEM) culture medium containing 10% fetal bovine serum, 100 U/ml penicillin, and 100 U/ml streptomycin. The cells were cultivated in 6 wells plates.
The pRetinol complex was added at a final concentrations of. Osmoter 0.2%, Dunaliella salina extract 1.2%, Niacinimide 0.04% and 6.24 ppm of β-Carotene i.e., 2.5 times dilution (the dilution was necessary in view of the human primary fibroblast cells culture being more sensitive than skin full organ culture). Retinol was added to the medium at a final concentration of 1.0 μM.
The cells were incubated at 37° C., 5% CO2 at a 100% RH for 48 hours. After incubation the cells were extracted using RIPA buffer collected to a blending Eppendorf and ground using stain steal beads and a bullet blender for 5 min. The samples were centrifuged for 15 min at 5000 rpm and the supernatant was collected.
BCA Protein concentration assay were performed on all the samples. The protein level for all samples was dilated to reach a concentration of 0.1 ng/ml of protein, diluted with PBS. Samples contain a protein concentration of 0.1 ng/ml were tested for hyaluronic ELISA assay kit (R&D systems, ELISA kit). Results were obtained as ng/ml of hyaluronic acid per 1 μg of protein. […]

In the case of `CC1=C(/C=C/C(C)=C/C=C/C(C)=C/CO)C(C)(C)CCC1` [Retinol], the “viability (MTT, mitochondrial activity) of epidermis” value [1] is reported as “increased mitochondrial activity”, the “reduction of TNFα secretion compared to the irradiated sample” value (TNFα [2]; Retinol 0.5% (w/w) in EtOH) is reported as 56% and the “reduction of TNFα secretion compared to the irradiated sample” value (TNFα [2]; Retinol 1.0% (w/w) in EtOH) is reported as 45%. For the same compound, the “increase of IL-1α secretion” value (IL-1α [3]; Retinol 0.05% (w/w) in EtOH) was 83%, the “increase of IL-1α secretion” value (IL-1α [3]; Retinol 0.5% (w/w) in EtOH) was 50% and the “increase of IL-1α secretion” value (IL-1α [3]; Retinol 1.0% (w/w) in EtOH) was 53%. The “viability (MTT, mitochondrial activity) of skin explants” value [4] was “did not cause increase or reduction of viability”, the TNFα secretion (TNFα [5]; Retinol 0.5%, after incubation of 72 hours, H2O control 0.35±0.05 pg/ml) was “below the detection level” and the TNFα secretion (TNFα [5]; Retinol 1.0%, after incubation of 72 hours, H2O control 0.35±0.05 pg/ml) was “below the detection level”. For the same compound, the TNFα secretion (TNFα [5]; Retinol for 48, 72 and 96 hours, reduction also observed with ethanol only) was “caused a reduction”, the IL-1α secretion (IL-1α [6]) was “increased; also recorded: caused an increase” and the z-score (skin equivalents; KEGG_APOPTOSIS) was 1.0758. For the same compound, the z-score (skin equivalents; KEGG_BASE_EXCISION_REPAIR) was −0.2818, the z-score (skin equivalents; KEGG_NF_KAPPA_B_SIGNALING_PATHWAY) was −0.4673 and the z-score (skin equivalents; KEGG_NOD-LIKE_RECEPTOR SIGNALING PATHWAY) was −0.3502. It also gave a z-score (skin equivalents; KEGG_SPHINGOLIPID_METABOLISM) of −0.6417, a z-score (skin equivalents; KEGG_TNF_SIGNALING_PATHWAY) of −1.1097 and a z-score (skin equivalents; KEGG_YERSINIA_INFECTION) of 1.5054. The z-score (skin equivalents; WIKI_KERATINIZATION) was 10.548 and the “production of hyaluronic acid compared to the control sample” value [7] was “induce the production of hyaluronic acid”.
